The values that follow are results of earlier work, collected in patent publication US20250333422A1, “AMORPHOUS BERBERINE WITH ENHANCED BIOAVAILABILITY” (Nature's Way Products, LLC, priority 2024, published 2025).

Molecules are shown by their SMILES. Where a name gives a salt, the structure may show the parent alone.

The conditions of data set [1]: berberine metabolites.
Test in data set [2]: not given
This is another data set of the same source.

As to `COc1c(O)ccc2cc3[n+](cc12)CCc1cc2c(cc1-3)OCO2` [thalifendine], in data set [1], the “biological activities for antioxidative, hepatoprotective, and hypolipidemic effects” value (“biological activities for antioxidative” below) is given as “showed biological activities”.

As to `COc1ccc2cc3[n+](cc2c1OC)CCc1cc(O)c(O)cc1-3` [demethyleneberberine], the “biological activities for antioxidative” value in data set [1] is given as “showed biological activities”. Take `COc1ccc2c(c1OC)CN1CCc3cc4c(cc3C1=C2)OCO4` [dhBB, dihydroberberine]: the “bioavailability of berberine versus an oral dosage of standard berberine” value is reported as 5 times.

For `COc1ccc2cc3[n+](cc2c1OC)CCc1cc2c(cc1-3)OCO2` [Berberine, Berberine HCl], the “share of dose that goes into the lower bowel unabsorbed” value in data set [2] (oral dose) is recorded as 99%. In data set [2] (standard crystalline berberine, oral), the bioavailability (usually dose-corrected exposure relative to a reference, in per cent) was less than 1%. `COc1cc2c(cc1O)CC[n+]1cc3c(OC)c(OC)ccc3cc1-2` [jatrorrhizine]: the “biological activities for antioxidative” value in data set [1] is “showed biological activities”. Take `COc1ccc2cc3[n+](cc2c1O)CCc1cc2c(cc1-3)OCO2` [berberrubine]: in data set [1], the “biological activities for antioxidative” value was “showed biological activities”.
